These results are taken from ChEMBL document CHEMBL4359816, “Discovery and Optimization of Quinolinone Derivatives as Potent, Selective, and Orally Bioavailable Mutant Isocitrate Dehydrogenase 1 (mIDH1) Inhibitors” (J Med Chem, 2019).

The term IC50 denotes the concentration that gives 50% inhibition.

Converted amounts (≈) assume the structure as drawn.

The nature of data set [1]: Metabolic stability in human liver microsomes assessed as compound remaining after 30 mins. Particulars: read-out: Stability. Type of data set: ADME, Microsome. A general note: Liver microsomes are a subcellular fraction often used to study metabolism.
A short description of data set [2]: Metabolic stability in mouse liver microsomes assessed as compound remaining after 30 mins. Type of data set: ADME, Microsome. Particulars: read-out: Stability.
Data set [3] in a line: Kinetic solubility of the compound. Type of data set: physicochemical. The note with it: read-out: Kinetic_solubility.
Data set [4] addresses T1, Isocitrate dehydrogenase [NADP] cytoplasmic (Homo sapiens, UniProt O75874, R132C). In words: Inhibition of human Myc-DDK-tagged IDH1 R132C mutant assessed as reduction in NADPH consumption pre-incubated for 15 mins followed by alpha-ketoglutarate substrate and NADPH addition after 45 mins by diaphorase and resazurin dye based assay. Background: Alamar Blue is a resazurin reagent that responds to reducing activity.

Data set [5] in a line: Metabolic stability in rat liver microsomes assessed as compound remaining after 30 mins. Type of data set: ADME, Microsome. The note with it: read-out: Stability.
Data set [6] has as its target T1, Isocitrate dehydrogenase [NADP] cytoplasmic. The data set is described as follows: Inhibition of IDH1 R132C mutant in human HCT116 cells assessed as reduction in 2-HG levels after 24 hrs by RapidFire high-throughput mass spectrometry assay. It counts as cell-based.

T1 sequence (O75874 2-414 R132C limits assumed): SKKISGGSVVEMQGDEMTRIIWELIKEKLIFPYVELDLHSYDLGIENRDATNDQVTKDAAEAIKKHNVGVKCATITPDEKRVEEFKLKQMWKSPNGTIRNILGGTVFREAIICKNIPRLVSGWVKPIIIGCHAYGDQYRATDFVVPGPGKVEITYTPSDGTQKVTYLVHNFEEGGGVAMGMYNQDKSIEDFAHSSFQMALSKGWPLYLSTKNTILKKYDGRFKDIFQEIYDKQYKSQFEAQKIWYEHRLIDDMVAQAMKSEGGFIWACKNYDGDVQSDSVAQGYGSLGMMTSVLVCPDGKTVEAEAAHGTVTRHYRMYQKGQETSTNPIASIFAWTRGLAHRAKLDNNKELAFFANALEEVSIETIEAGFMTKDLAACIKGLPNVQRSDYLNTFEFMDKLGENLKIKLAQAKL

`COc1cc(NCc2cc3cc(Cl)ccc3n(C)c2=O)ccc1-n1cnnn1`: the results for the remaining at 0.5 h in data set [1] and in data set [2] were 63.7% and 22%, respectively. Besides, the solubility kinetic in data set [3] is less than 0.01 µM.
The corresponding values for `CCOc1cc(NCc2cc3cc(Cl)ccc3[nH]c2=O)ccc1C#N` are 78%, 29% and less than 0.1 µM.
Regarding `N#Cc1ccc(NCc2cc3cc(Cl)ccc3[nH]c2=O)nc1`, the remaining at 0.5 h in data set [1] amounted to 91%; in data set [2] it was 75%. In addition, the solubility kinetic in data set [3] came to 0.42 µM (≈ 0.131 µg/mL).
As for `COc1nc(N[C@@H](C)c2cc3cc(Cl)c(OCC4CC4)cc3[nH]c2=O)ncc1C#N`, the remaining at 0.5 h in data set [1] and in data set [5] was 100% each time. Further, the IC50 in data set [4] worked out at 53 nM; in data set [6] it was 54 nM. Also, in data set [3], the solubility kinetic was less than 0.1 µM.
Take `COc1cc(NCc2cc3cc(Cl)cc(OCc4ccccn4)c3[nH]c2=O)ccc1C#N`: in data set [4], the IC50 came to 3480 nM.
For `COc1cc(NCc2cc3cc(C)ccc3[nH]c2=O)ccc1-n1cnnn1`, the remaining at 0.5 h came out at 30.8% in data set [1] and 42.3% in data set [2]. The solubility kinetic in data set [3] was less than 0.01 µM.
The corresponding values for `N#Cc1ccc(NCc2cc3cc(Cl)ccc3[nH]c2=O)cc1C(F)(F)F` are 100%, 100% and less than 0.1 µM.
As for `Cc1nnnn1-c1ccc(NCc2cc3cc(Cl)ccc3[nH]c2=O)cc1`, the remaining at 0.5 h in data set [1] stood at 100%; in data set [2] it was 85%. Also, the solubility kinetic in data set [3] came out at 1.2 µM (≈ 0.44 µg/mL).
Consider `N#Cc1ccc(NCc2cc3cc(Cl)ccc3[nH]c2=O)nc1C(F)(F)F`, for which the remaining at 0.5 h in data set [1] turned out to be 94%; in data set [2] it was 100%. Moreover, the solubility kinetic in data set [3] is less than 0.1 µM.
On the same counts, the results for `N#Cc1ccc(NCc2cc3cc(Cl)ccc3[nH]c2=O)cc1OC(F)(F)F` are 72%, 72% and less than 0.1 µM.
As to `COc1cc(NCc2cc3cc(Cl)c(OC[C@@H]4CCCN4C)cc3[nH]c2=O)ccc1C#N`, the remaining at 0.5 h in data set [1] worked out at 6.3%; in data set [2] it was 48.8%. In data set [4], the IC50 is 5870 nM. Moreover, in data set [3], the solubility kinetic amounted to 0.72 µM (≈ 0.326 µg/mL).
Turning to `COc1cc(NCc2cc3cc(F)ccc3[nH]c2=O)ccc1C#N`, the remaining at 0.5 h in data set [1] came to 81%; in data set [2], 46%. In addition, the solubility kinetic in data set [3] was 3.32 µM (≈ 1.07 µg/mL).
Turning to `O=c1[nH]c2ccc(Cl)cc2cc1CNc1ccc(-c2csnn2)cc1`, the remaining at 0.5 h was 82% in data set [1] and 57% in data set [2].
For `COc1cc(NCc2cc3cc(C(F)(F)F)ccc3[nH]c2=O)ccc1C#N`, the remaining at 0.5 h was 76% in data set [1] and 89% in data set [2]. In addition, in data set [3], the solubility kinetic is less than 0.1 µM.
For the compound `COc1cc(NCc2cc3cc(C)c(C)cc3[nH]c2=O)ccc1-n1cnnn1`, the remaining at 0.5 h was 17.6% in data set [1] and 27.9% in data set [2]. In addition, in data set [3], the solubility kinetic stood at 0.04 µM (≈ 0.0151 µg/mL).
`COc1cc(NCc2cc3cc(Cl)cc(OCCN4CCOCC4)c3[nH]c2=O)ccc1C#N`: the remaining at 0.5 h was 0% in data set [1] and 2.4% in data set [2]. Also, in data set [4], the concentration for half-maximal inhibition (IC50) worked out at 3710 nM. Moreover, the solubility kinetic in data set [3] is less than 0.1 µM.
Turning to `COc1cc(NCc2cc3ccccc3[nH]c2=O)ccc1C#N`, the results for the remaining at 0.5 h in data set [1] and in data set [2] were 35% and 4.6%, respectively. Besides, the solubility kinetic in data set [3] is 6.13 µM (≈ 1.87 µg/mL).
For the compound `Cc1nc(NC(C)(C)c2cc3cc(Cl)ccc3[nH]c2=O)ccc1C#N`, the remaining at 0.5 h in data set [1] amounted to 81%; in data set [2] it was 67%. Besides, in data set [3], the solubility kinetic was less than 0.1 µM.
On to `COc1cc(NCc2cc3cc(Cl)cc(OC)c3[nH]c2=O)ccc1C#N`, for which the remaining at 0.5 h in data set [1] was 53%; in data set [2], 3.4%. The IC50 in data set [4] worked out at 88600 nM. Further, in data set [3], the solubility kinetic was less than 0.1 µM.
With `Cc1ccnc(NCc2cc3cc(Cl)ccc3[nH]c2=O)c1`, the figures for the remaining at 0.5 h in data set [1] and in data set [2] were 76% and 0.6%, respectively. In data set [3], the solubility kinetic turned out to be 0.88 µM (≈ 0.264 µg/mL).
Take `COc1ccc2[nH]c(=O)c(CNc3ccc(C#N)c(OC)c3)cc2c1`: the remaining at 0.5 h in data set [1] is 21.6%; in data set [2], 10.5%. The solubility kinetic in data set [3] was 0.67 µM (≈ 0.225 µg/mL).
With `COc1cc(NCc2cc3cc(Cl)ccc3[nH]c2=O)ccc1-n1cnnn1`, the remaining at 0.5 h in data set [1] came to 93.9%; in data set [2], 89.9%. In addition, the solubility kinetic in data set [3] was less than 0.01 µM.
Take `COc1cc(C#N)ccc1NCc1cc2cc(Cl)ccc2[nH]c1=O`: the remaining at 0.5 h worked out at 79% in data set [1] and 2.1% in data set [2]. In data set [3], the solubility kinetic is less than 0.1 µM.
`COc1cc(NCc2cc3cc(Cl)c(OCCN(C)C)cc3[nH]c2=O)ccc1C#N`: the IC50 in data set [4] stood at 6250 nM. Besides, the solubility kinetic in data set [3] is 1 µM (≈ 0.427 µg/mL).
Regarding `N#Cc1ccc(NCc2cc3cc(Cl)ccc3[nH]c2=O)cc1O`, the remaining at 0.5 h in data set [1] was determined as 75%; in data set [2], 85%. The solubility kinetic in data set [3] stood at 20.9 µM (≈ 6.81 µg/mL).
As to `Cc1nc(N[C@H](C)c2cc3cc(Cl)ccc3[nH]c2=O)ccc1C#N`, the values for the remaining at 0.5 h in data set [1] and in data set [2] were 100% and 89%, respectively. In addition, the solubility kinetic in data set [3] turned out to be 8 µM (≈ 2.71 µg/mL).
Regarding `COc1cc(NCc2cc3cc(Cl)c(OCC4CCCCN4C)cc3[nH]c2=O)ccc1C#N` (stereo not given), the remaining at 0.5 h in data set [1] is 0%; in data set [2] it was 10.7%. In data set [4], the IC50 is 1280 nM. The solubility kinetic in data set [3] is 1.35 µM (≈ 0.63 µg/mL).
With `N#Cc1ccc(NCc2cc3cc(Cl)ccc3[nH]c2=O)cc1F`, the figures for the remaining at 0.5 h in data set [1] and in data set [2] were 100% and 49%, respectively. Moreover, the solubility kinetic in data set [3] was less than 0.1 µM.
With `COc1cc(NCc2cc3cc(Br)ccc3[nH]c2=O)ccc1C#N`, the remaining at 0.5 h amounted to 89% in data set [1] and 39% in data set [2]. Also, the solubility kinetic in data set [3] worked out at 0.18 µM (≈ 0.0692 µg/mL).
Turning to `COc1cc(NCc2cc3cc(Cl)c(OCCN4CCOCC4)cc3[nH]c2=O)ccc1C#N`, the remaining at 0.5 h in data set [1] amounted to 1.1%; in data set [2], 13.1%. For the same compound, the IC50 in data set [4] amounted to 932 nM. Moreover, the solubility kinetic in data set [3] was 0.385 µM (≈ 0.181 µg/mL).
For `COc1cc(NCc2cc3cc(Cl)c(OCCN4CCCC4=O)cc3[nH]c2=O)ccc1C#N`, the results for the remaining at 0.5 h in data set [1] and in data set [2] were 2.5% and 14.3%, respectively. The IC50 in data set [4] is 2670 nM. Also, the solubility kinetic in data set [3] came out at 0.53 µM (≈ 0.247 µg/mL).
With `O=c1[nH]c2ccc(Cl)cc2cc1CNc1ccc(-n2ccnc2)cc1`, the remaining at 0.5 h in data set [1] was 98%; in data set [2] it was 93%. Further, the solubility kinetic in data set [3] came to 1.57 µM (≈ 0.551 µg/mL).
Turning to `COc1cc(NCc2cc3cc(C(C)(C)C)ccc3[nH]c2=O)ccc1C#N`, the remaining at 0.5 h in data set [1] is 6%; in data set [2] it was 3.9%. Also, the solubility kinetic in data set [3] was less than 0.1 µM.
In the case of `Cc1nc(NC(C)c2cc3cc(Cl)ccc3[nH]c2=O)ccc1C#N` (racemic), the remaining at 0.5 h in data set [1] stood at 100%; in data set [2], 96%. Further, the IC50 in data set [4] came to 606 nM. Also, the solubility kinetic in data set [3] was determined as 12.2 µM (≈ 4.13 µg/mL).
Regarding `N#Cc1ccc(NCc2cc3cc(Cl)ccc3[nH]c2=O)cc1`, the remaining at 0.5 h is 65% in data set [1] and 53% in data set [2]. The solubility kinetic in data set [3] was found to be 0.21 µM (≈ 0.065 µg/mL).
The corresponding values for `Cc1cc(NCc2cc3cc(Cl)ccc3[nH]c2=O)ncc1C#N` are 99%, 75% and 0.8 µM (≈ 0.26 µg/mL).
As to `COc1cc(NCc2cc3cc(Cl)c(OCc4cc(C)n(C)n4)cc3[nH]c2=O)ccc1C#N`, the remaining at 0.5 h in data set [1] amounted to 32.7%; in data set [2] it was 52.7%. The IC50 in data set [4] amounted to 317 nM. In addition, the solubility kinetic in data set [3] is less than 0.01 µM.
Regarding `COc1cc(NCc2cc3cc(Cl)ccc3[nH]c2=O)cc(OC)c1C#N`, the remaining at 0.5 h in data set [1] was 80%; in data set [2] it was 59%. Further, the solubility kinetic in data set [3] was less than 0.1 µM.
In the case of `COc1cc(NCc2cc3cc(Cl)c(OC4CCN(C)CC4)cc3[nH]c2=O)ccc1C#N`, the remaining at 0.5 h in data set [1] worked out at 4.3%; in data set [2], 78.8%. Also, the IC50 in data set [4] was 5100 nM. The solubility kinetic in data set [3] was 0.41 µM (≈ 0.186 µg/mL).
In the case of `COc1cc(NCc2cc3cc(Cl)c(OCc4ccccn4)cc3[nH]c2=O)ccc1C#N`, the remaining at 0.5 h in data set [1] was found to be 30%; in data set [2] it was 73.4%. Further, the half-inhibitory concentration (IC50) in data set [4] is 225 nM. Besides, the solubility kinetic in data set [3] is less than 0.1 µM.
Turning to `Cc1cc(NCc2cc3cc(Cl)ccc3[nH]c2=O)ccc1C#N`, the remaining at 0.5 h amounted to 75% in data set [1] and 49% in data set [2]. For the same compound, the solubility kinetic in data set [3] is less than 0.1 µM.
Consider `COc1cc(NCc2cc3ccccc3[nH]c2=O)ccc1-n1cnnn1`, for which the values for the remaining at 0.5 h in data set [1] and in data set [2] were 88% and 69.4%, respectively. Further, the solubility kinetic in data set [3] was found to be 0.93 µM (≈ 0.324 µg/mL).
On the same counts, the results for `COc1cc(NCc2cc3ccc(C)cc3[nH]c2=O)ccc1-n1cnnn1` are 9.6%, 17.8% and less than 0.01 µM.
For `COc1cc2[nH]c(=O)c(CNc3ccc(C#N)c(OC)c3)cc2cc1Cl`, the remaining at 0.5 h in data set [1] was 1%; in data set [2], 94.9%. Moreover, the IC50 in data set [4] is 667 nM. For the same compound, the solubility kinetic in data set [3] is less than 0.1 µM.
Regarding `Cc1nc(NC2(c3cc4cc(Cl)ccc4[nH]c3=O)CC2)ccc1C#N`, the remaining at 0.5 h in data set [1] is 91%; in data set [2] it was 77%. Besides, the solubility kinetic in data set [3] is less than 0.1 µM.
For the compound `COc1cc(NCc2cc3cc(Cl)ccc3[nH]c2=O)ccc1S(C)(=O)=O`, the remaining at 0.5 h in data set [1] stood at 100%; in data set [2], 81%. Also, in data set [3], the solubility kinetic was found to be 32.5 µM (≈ 12.8 µg/mL).
On the same counts, the results for `COc1cc(NCc2cc3cc(C)ccc3[nH]c2=O)ccc1C#N` are 1.2%, 0.49% and 1.33 µM (≈ 0.425 µg/mL).
